Active and inactive are the calls of the source. No cut-off for these calls is given here.
How the values were obtained:
[1] = Selectivity index, ratio of CC50 for Cytotoxicity against african green monkey Vero cells to IC50 for Antiviral activity against HSV1 infected in African green monkey Vero cells; format: toxicity, cell-based; settings: read-out: Selectivity Index
[2] = Cytotoxicity against African green monkey Vero cells assessed as cell viability measured after 24 hrs incubation by MTT assay; format: toxicity, cell-based; settings: chlorocebus sabaeus
Human alphaherpesvirus 1 [3] = experiment: Antiviral activity against HSV1 infected in African green monkey Vero cells assessed as reduction of virus-induced cytopathic effect measured after 48 hrs of incubation; format: functional, organism-based; settings: Human alphaherpesvirus 1, Vero
Human alphaherpesvirus 1 [4] = experiment: Antiviral activity against HSV1 infected in African green monkey Vero cells assessed as reduction of virus yield at 2 uM treated for 0 to 14 hrs of post-infection; format: functional, organism-based; settings: time 0-14 hrs
Vero [5] = experiment: Suppression of phosphorylation of RNA polymerase at serine 2 C-terminal domain in HSV1 infected African green monkey Vero cells at 0.25 to 2 uM measured after 12 hrs incubation by Western blot analysis; format: cell-based; settings: Human alphaherpesvirus 1, dose 0.25-2 µM
Vero [6] = experiment: Inhibition of CDK7/Cyclin T1 in African green monkey Vero cells infected with HSV1 assessed as catalytic hydrolysis of ATP measured after 12 hrs by Western blot analysis; format: cell-based; settings: Chlorocebus aethiops
Vero [7] = experiment: Inhibition of CDK9/Cyclin T1 in African green monkey Vero cells infected with HSV1 assessed as catalytic hydrolysis of ATP measured after 12 hrs by Western blot analysis; format: cell-based; settings: Chlorocebus aethiops
Human alphaherpesvirus 1 [8] = experiment: Antiviral activity against HSV1 expressing GFP infected in African green monkey Vero cells assessed as reduction in green fluorescence protein expression at 1 uM measured after 24 hrs post-infection by immunofluorescence based fluorescence microscopy; format: functional, organism-based
Human alphaherpesvirus 1 [9] = experiment: In vivo antiviral activity against HSV1 infected in BALB/c mouse right ear by scratch assessed as increase in body weight at 10 to 20 mg/kg, applied topically measured for 5 to 9 days post-infection relative to control; format: functional, organism-based; settings: dose 10-20 mg/kg, time 5-9 day
Human alphaherpesvirus 1 [10] = experiment: In vivo antiviral activity against HSV1 infected in BALB/c mouse right ear by scratch assessed as reduction in viral titer in ear tissue homogenate at 10 to 20 mg/kg, applied topically measured for 5 to 9 days post-infection; format: functional, organism-based; settings: dose 10-20 mg/kg, time 5-9 day
Human alphaherpesvirus 1 [11] = experiment: Antiviral activity against ACV-resistant HSV1 Blue infected in African green monkey Vero cells assessed as reduction of virus-induced cytopathic effect measured after 48 hrs of incubation; format: functional, organism-based; settings: Human alphaherpesvirus 1, Blue
Vero [12] = experiment: Suppression of phosphorylation of RNA polymerase at serine 5 C-terminal domain in HSV1 infected African green monkey Vero cells measured after 12 hrs incubation by Western blot analysis; format: cell-based; settings: Human alphaherpesvirus 1, dose 0.25-2 µM
Human alphaherpesvirus 1 [13] = experiment: Antiviral activity against HSV1 expressing GFP infected in African green monkey Vero cells assessed as fold reduction in viral titer green fluorescence protein expression measured after 48 hrs post-infection by immunofluorescence based fluorescence microscopy; format: functional
Human alphaherpesvirus 1 [14] = experiment: In vivo antiviral activity against HSV1 infected in BALB/c mouse right ear by scratch assessed as reduction in ear thickness at 10 to 20 mg/kg, applied topically measured for 5 to 9 days post-infection; format: functional, organism-based; settings: dose 10-20 mg/kg, time 5-9 day
Human alphaherpesvirus 2 = experiment: Antiviral activity against HSV2 infected in African green monkey Vero cells assessed as reduction of virus-induced cytopathic effect measured after 48 hrs of incubation; format: functional, organism-based; settings: Human alphaherpesvirus 2, Vero
Human alphaherpesvirus 1 [15] = experiment: In vivo antiviral activity against HSV1 infected in BALB/c mouse right ear by scratch assessed as reduction in skin lesions at 10 to 20 mg/kg, applied topically measured for 5 to 9 days post-infection; format: functional, organism-based; settings: dose 10-20 mg/kg, time 5-9 day
[16] = Toxicity in BALB/c mouse assessed as toxic side effects at 10 to 20 mg/kg, applied topically measured for 5 to 9 days post-infection; format: organism-based; settings: in vivo, topical_or_ocular, dose lower 10 mg/kg, time lower 5 day, dose upper 20 mg/kg, time upper 9 day
Human alphaherpesvirus 1 [17] = experiment: In vivo antiviral activity against HSV1 infected in BALB/c mouse right ear by scratch assessed as reduction in gD glycoprotein level at 10 to 20 mg/kg, applied topically measured for 5 to 9 days post-infection; format: functional, organism-based; settings: dose 10-20 mg/kg, time 5-9 day
Human alphaherpesvirus 1 [18] = experiment: Antiviral activity against HSV1 infected in African green monkey Vero cells assessed as inhibition of transcription by measuring viral gene level at 0.25 to 2 uM by RT-PCR analysis relative to control; format: functional, organism-based; settings: dose 0.25-2 µM
Human alphaherpesvirus 1 [19] = experiment: Antiviral activity against ACV-resistant HSV1 153 infected in African green monkey Vero cells assessed as reduction of virus-induced cytopathic effect measured after 48 hrs of incubation; format: functional, organism-based; settings: Human alphaherpesvirus 1, 153, Vero
Human alphaherpesvirus 1 [20] = experiment: Antiviral activity against HSV1 expressing GFP infected in African green monkey Vero cells assessed as fold reduction in viral titer green fluorescence protein expression at 2 uM measured after 48 hrs post-infection by immunofluorescence based fluorescence microscopy; format: functional
Human alphaherpesvirus 1 [21] = experiment: Antiviral activity against HSV1 infected in African green monkey Vero cells assessed as inhibition of virus replication at 2 uM treated 8 hrs of post-infection; format: functional, organism-based
Human alphaherpesvirus 1 [22] = experiment: Antiviral activity against HSV1 expressing GFP infected in African green monkey Vero cells assessed as suppression of infection at 50 times of IC50 concentration measured after 48 hrs post-infection; format: functional, organism-based

In the case of CC(C)CC(=O)c1c(O)cc2c(c1O)[C@@H](CC(C)C)C1=C(O2)C(C)(C)[C@@H](O)C(C)(C)C1=O, the selectivity ratio [1] is reported as less than 6.67, the CC50 at 24 h [2] is reported as 10 µM and the IC50 (Human alphaherpesvirus 1 [3]) is reported as 3.75 µM. The Activity (Human alphaherpesvirus 1 [4]) was “Active”.

With CC(C)(C)c1cnc(CSc2cnc(NC(=O)C3CCNCC3)s2)o1 the Activity (Vero [5]) was “Active”, the Activity (Vero [6]) was “Active” and the Activity (Vero [7]) was “Active”.

For CC(C)CC(=O)c1c(O)cc2c(c1O)C(CC(C)C)C1=C(O2)C(C)(C)C(=O)C(C)(C)C1=O (racemic), the Activity (Human alphaherpesvirus 1 [8]) was “Active”, the Activity (Human alphaherpesvirus 1 [9]) was “Active” and the Activity (Human alphaherpesvirus 1 [10]) was “Active”. The Activity (Vero [5]) was “Active; Compound Showed Only Slight Inhibition”, the IC50 (Human alphaherpesvirus 1 [11]) was 0.3 µM and the Activity (Vero [12]) was “Dose-dependent-effect”. For the same compound, the “fold change (FC)” value (Human alphaherpesvirus 1 [13]) was 3943, the selectivity ratio [1] was 17.9 and the Activity (Human alphaherpesvirus 1 [14]) was “Active”. For the same compound, the IC50 (Human alphaherpesvirus 2) was 0.35 µM, the CC50 at 24 h [2] was 7 µM and the Activity (Human alphaherpesvirus 1 [15]) was “Active”. The IC50 (Human alphaherpesvirus 1 [3]) was 0.39 µM, the Activity [16] was “Non-toxic” and the Activity (Human alphaherpesvirus 1 [17]) was “Active”. For the same compound, the Activity (Human alphaherpesvirus 1 [18]) was “Active”, the IC50 (Human alphaherpesvirus 1 [19]) was 0.3 µM and the Activity (Human alphaherpesvirus 1 [20]) was “Active”. The Activity (Human alphaherpesvirus 1 [4]) was “Active” and the Activity (Vero [6]) was “inactive”.

For Nc1nc2c(ncn2COCCO)c(=O)[nH]1 [ACYCLOVIR], the Activity (Human alphaherpesvirus 1 [21]) was “Active”, the IC50 (Human alphaherpesvirus 1 [11]) was greater than 100 µM and the Activity (Human alphaherpesvirus 1 [22]) was “inactive”. The selectivity ratio [1] was greater than 80, the CC50 at 24 h [2] was greater than 100 µM and the IC50 (Human alphaherpesvirus 1 [3]) was 1.2 µM. It also gave an IC50 (Human alphaherpesvirus 1 [19]) greater than 100 µM.

For CC(C)CC(=O)c1c(O)c(Cl)c2c(c1O)C(CC(C)C)C1=C(O2)C(C)(C)C(=O)C(C)(C)C1=O (centres undefined), the IC50 (Human alphaherpesvirus 1 [11]) was 0.3 µM, the Activity (Human alphaherpesvirus 1 [13]) was “Dose-dependent-effect” and the selectivity ratio [1] was 35. It also gave a CC50 at 24 h [2] of 14 µM, an IC50 (Human alphaherpesvirus 1 [3]) of 0.4 µM and an IC50 (Human alphaherpesvirus 1 [19]) of 0.4 µM. For the same compound, the “fold change (FC)” value (Human alphaherpesvirus 1 [20]) was 3549.

For CC(C)CC1C2=C(Oc3cc(O)c(C(=O)C4CCC4)c(O)c31)C(C)(C)C(=O)C(C)(C)C2=O (centres undefined), the IC50 (Human alphaherpesvirus 1 [11]) was 0.25 µM, the Activity (Human alphaherpesvirus 1 [13]) was “Dose-dependent-effect” and the selectivity ratio [1] was 26. It also gave a CC50 at 24 h [2] of 13 µM, an IC50 (Human alphaherpesvirus 1 [3]) of 0.5 µM and an IC50 (Human alphaherpesvirus 1 [19]) of 0.3 µM. The “fold change (FC)” value (Human alphaherpesvirus 1 [20]) was 1867 and the Activity (Human alphaherpesvirus 1 [4]) was “Active”.

In the case of CC(C)CC(=O)c1c(O)cc2c(c1O)C(C(C)C)C1=C(O2)C(C)(C)C(=O)C(C)(C)C1=O (centres undefined), the IC50 (Human alphaherpesvirus 1 [11]) is reported as 0.6 µM, the selectivity ratio [1] is reported as 15.9 and the CC50 at 24 h [2] is reported as 10 µM. It also gave an IC50 (Human alphaherpesvirus 1 [3]) of 0.63 µM and an IC50 (Human alphaherpesvirus 1 [19]) of 0.7 µM.

Reference: ChEMBL document CHEMBL6182947, “Discovery of Phloroglucinol Derivatives as a New Type of Nonnucleoside Inhibitors with Anti-herpes Simplex Virus Type 1 Activity” (J Med Chem, 2025)
